{"source": "patent US9150579B2", "about": "“Selective PI3K delta inhibitors” (Rhizen Pharmaceuticals SA, priority 2012, dated 2015)", "key": {"[1]": {"experiment": "Metabolic stability in rat liver microsomes", "assay_type": "in vitro ADME", "conditions": "1 μM test item, 60 minutes, NADPH", "method": "(§1) Metabolic stability studies were conducted using mouse, rat, and human liver microsomes. The protocol for the studies with mouse, rat, and human liver microsomes (all from BD Gentest, USA) is provided below. In brief, 0.4 mg protein was preincubated with 2 mM NADPH (cofactor) in phosphate buffer (pH˜7.4) for 15 min at 37° C. and then added with 1 μM test item and incubated further for 60 minutes in triplicate. The reaction mixture was terminated with methanol containing an internal standard and centrifuged further to analyze the test item remaining in the supernatant by LC-MS/MS. The percent parent compound remaining was calculated in comparison with similar samples terminated at 0 minutes."}, "[2]": {"tested_on": "PI3Kδ signalling in basophils", "experiment": "Assay 4: Inhibition of PI3Kδ signalling in basophils from human whole blood (anti-FcεR1 induced CD63 expression)", "conditions": "read-out: EC50, inhibition of anti-FcεR1 mediated CD63 expression", "protocol": "PI3Kδ signalling in basophils manifested by an alteration of anti-FcεR1 induced CD63 expression is a useful pharmacodynamic marker determined using the Flow2CAST® kit (Buhlmann Laboratories, Switzerland). Briefly, it involves the following steps: • Mix the anti-coagulated blood sample by inverting the venipuncture tube several times • Prepare fresh and pyrogen-free 3.5 ml polypropylene or polystyrene tubes suitable for Flow Cytometry measurements • Add 49 μl of patient's whole blood to each tube. • Add 1 μl of 10% DMSO (background) or compound (10% DMSO) to the assigned tubes and mix gently. Incubate at room temperature for 15 min • Pipette 50 μl of the Stimulation buffer (background) or anti-FcεRI Ab to each tube • Add 100 μl of Stimulation Buffer to each tube • Mix gently. […] (using an incubator will take about 10 minutes longer incubation time due to less efficient heat transfer) • Add 2 ml pre-warmed (18-28° C.) Lysing Reagent to each tube, mix gently • Incubate for 5-10 minutes at 18-28° C. • Centrifuge the tubes for 5 minutes at 500×g • Decant the supernatant by using blotting paper • Resuspend the cell pellet with 300-800 μl of Wash Buffer • Vortex gently and acquire the data on the flow cytometer within the same day. • Percent CD63 positive cells within the gated basophil population are to be determined in different treatment groups and normalized to vehicle control."}, "[3]": {"tested_on": "AML patient bone marrow leukemic cells", "experiment": "Assay 6-III: Cell proliferation analysis of AML patient bone marrow sample (MTS)", "assay_type": "cell-based, human", "method": "6-III: Cell proliferation analysis of AML patient bone marrow sample using MTS assay: Mononuclear cells were extracted by the Ficoll method and seeded in plates. The cells were treated by different compounds for 48 hrs and 72 hrs before they were analyzed by MTS assay following product instruction. Briefly, 20 μL of the MTS solution was added into each well containing the 100 μL cell suspension, followed by incubation for 4 hours at 37° C., in 95% humidity with presence of 5% CO2. The absorbance of 490 nm (A490) was read using SpectraMAX Plus microplate spectrophotometer."}, "[4]": {"tested_on": "AKT phosphorylation in THP-1, HL-60, MOLT-4, RPMI-8226, or DLBCL cells", "experiment": "Assay 3: Inhibition of AKT phosphorylation in leukemic cell lines", "assay_type": "cell-based", "conditions": "48 hours, Western Blotting", "method": "Inhibition of AKT phosphorylation in leukemic cell lines: THP-1, HL-60, MOLT-4, RPMI-8226, or DLBCL cells were incubated with desired concentrations of compound for 48 hours. Cells were lysed and pAKT was determined by Western Blotting. Bands were quantified using ImageJ and normalized to actin."}, "[5]": {"tested_on": "Primary CLL cells", "experiment": "Assay 8: Screening for anticancer activity in human CLL cells", "assay_type": "cell-based", "method": "After 72 hours of incubation, CLL cells were evaluated for cytotoxicity using the colorimetric MTS reagent. Phosphorylated Akt (S473) was measured by flow cytometry after one hour of incubation of test compound and ten minutes of incubation with anti-IgM or anti-IgD. Akt phosphorylation was quantified by median fluorescent intensity (MFI). Of the seven CLL patient samples used for experiments, five had mutated IGHV, five had 13 q deletion or normal cytogenetics determined by fluorescent in situ hybridization, three were ZAP-70 negative, and seven were CD38 negative. IgM expression ranged between 13% and 90%, whereas IgD expression was uniformly elevated."}, "[6]": {"tested_on": "Human Multiple Myeloma Cells", "experiment": "Assay 6a: Screening for anticancer activity in human multiple myeloma cells", "assay_type": "cell-based", "conditions": "primary multiple myeloma patient cells", "method": "Samples were taken from two patients with newly diagnosed stage II IgG Kappa and stage III IgG Lambd restricted disease. This screening was performed by inducing apoptosis using doses and times determined from the MTT assay. 1-5×10^5 cells were collected by centrifugation. The cells were re-suspended in 500 μl of 1× Binding Buffer. 5 μl of Annexin V-FITC and 5 μl of propidium iodide were added. The cells were incubated at room temperature for 5 minutes in the dark.\nQuantification by flow cytometry: Annexin V-FITC binding was analyzed by flow cytometry (Ex=488 nm; Em=530 nm) using FITC signal detector (usually FL1) and PI staining using a phycoerythrin emission signal detector (usually FL2). The results are shown below and in FIG. 1."}, "[7]": {"experiment": "Metabolic stability in mouse liver microsomes", "assay_type": "in vitro ADME", "conditions": "1 μM test item, 60 minutes, NADPH", "method": "as §1"}, "[8]": {"experiment": "Metabolic stability in human liver microsomes", "assay_type": "in vitro ADME", "conditions": "1 μM test item, 60 minutes, NADPH", "method": "as §1"}, "[9]": {"tested_on": "leukemic cells", "experiment": "Assay 5: Apoptosis in leukemic cell lines (in situ Caspase 3 kit)", "assay_type": "cell-based", "conditions": "24 hrs", "method": "Apoptosis in leukemic cells was determined using an in situ Caspase 3 kit (Millipore, US) as outlined below: • Seed leukemic cells at a density of 1×10^6 cells/well in a 6 well plate • Add test compound/DMSO at desired concentrations • Incubate the plate for 24 hrs at 37° C. in 5% CO2 incubator • Collect cells in a 2 ml centrifuge tube • Add 1.6 μL of freshly prepared 5× FLICA reagent and mix cells by slightly flicking the tubes • Incubate tubes for 1 hour at 37° C. under 5% CO2 • Add 2 ml of 1× wash buffer to each tube and mix • Centrifuge cells at <400×g for 5 minutes at room temperature. • Carefully remove and discard supernatant, and gently vortex cell pellet to disrupt any cell-to-cell clumping. • Resuspend cell pellet in 300 ul of 1× wash buffer • Place 100 μL of each cell suspension into each of two wells of a black microtiter plate. Avoid creation of bubbles. • Read […] of each microwell using an excitation wavelength of 490 nm and an emission wavelength of 520 nm • Percent increase in caspase-3 activity manifested by an increase in fluorescence compared to the control blank is to be calculated."}, "[10]": {"tested_on": "pAKT in AML patient bone marrow leukemic cells", "experiment": "Assay 6-II: pAKT analysis of AML patient bone marrow sample (pAKT ELISA)", "assay_type": "cell-based, human", "method": "6-II: pAKT analysis of AML patient bone marrow sample using pAKT ELISA kit: Mononuclear cells were extracted by the Ficoll method and seeded in plates. The cells were treated by different compounds for 48 hrs before they were analyzed by pAKT ELISA kit following the product protocol. Briefly, 1×10^6 cells were transferred into an ELISA kit well and lyzed with 10 μL 5× Cell Lysis Mix (phospho-AKT 1/2/3 (Ser473) InstantOne™ ELISA Kit, eBioscience, 85-86042). The cells were then incubated with 50 μl antibody cocktail for 1 hr at room temp. on a microplate shaker (˜300 rpm). After incubating with detection reagent, the result was measured using a SpectraMAX Plus microplate spectrophotometer set at 450 nm."}, "[11]": {"tested_on": "immortalized leukemic cells (B, T, and monocytic cell lines)", "experiment": "Assay 7: Screening for anticancer activity in various leukemic cell lines (MTT)", "assay_type": "cell-based", "conditions": "majority of B, 72-96 h, read-out: concentration for 50% growth inhibition", "method": "Proliferation of immortalized leukemic cells representative of various indications was determined by a MTT (3-(4,5-Dimethylthiazol-2-yl)-2,5-diphenyl tetrazolium bromide) assay."}, "[12]": {"tested_on": "AML patient bone marrow leukemic cells", "experiment": "Assay 6-I: Flow cytometry analysis of apoptotic induction in AML patient bone marrow leukemic cells", "assay_type": "cell-based, human", "method": "6-I: Flow cytometry analysis of apoptotic induction in AML patient bone marrow leukemic cells upon compound treatment using Annexin V and 7-AAD staining: Mononuclear cells were extracted by the Ficoll method and seeded in plates. The cells were treated by different compounds for 48 hrs before they were analyzed by flow cytometry. After washing with PBS, 1×10^5 cells were stained by Annexin V-APC and 7-AAD. Annexin V positive staining measures total apoptotic cells, including early and late apoptotic cells. For Annexin V positive cells, 7-AAD negative signal reflects early apoptotic cells."}}, "note": "pEC50, pIC50: −log10 of the molar value. “Also recorded” adds a separate entry of the source."}
{"molecule": "CC(C)Oc1ccc(-c2nn([C@@H](C)c3oc4ccc(F)cc4c(=O)c3-c3cccc(F)c3)c3ncnc(N)c23)cc1F", "note": "[Compound B1, (S)-2-(1-(4-amino-3-(3-fluoro-4-isopropoxyphenyl)-1H-pyrazolo[3,4-d]pyrimidin-1-yl)ethyl)-6-fluoro-3-(3-fluorophenyl)-4H-chromen-4-one]", "values": [{"measurement": "Metabolic stability in liver microsomes, Rat (percent parent compound remaining)", "setting": "[1]", "result": 23.1, "unit": "%"}, {"measurement": "pEC50", "setting": "[2]", "result": "≥ 7.00"}, {"measurement": "cell viability / proliferation", "setting": "[3]", "result": "dose dependent reduction in proliferation; also recorded: Dose dependent reduction in cell viability"}, {"measurement": "inhibition at 1 µM", "setting": "[4]", "result": "50 to 90", "unit": "%"}, {"measurement": "apoptosis (caspase-3+/7AAD+)", "setting": "[5]; 48 hours, 0.1 and 25.6 μM", "result": "significantly induced apoptosis"}, {"measurement": "cytotoxicity (MTS)", "setting": "[5]; 72 hours, 0.1 and 25.6 μM", "result": "significantly induced"}, {"measurement": "Akt phosphorylation (S473) induced by anti-surface immunoglobulin", "setting": "[5]; one hour compound, anti-IgM or anti-IgD, flow cytometry MFI", "result": "significantly abrogated this effect and returned Akt phosphorylation to baseline"}, {"measurement": "inhibition at 3 µM", "setting": "[6]; Homo sapiens, Multiple myeloma cell, 3.0 μM, read-out: inhibition of PAKT", "result": "> 75", "unit": "%"}, {"measurement": "cell viability", "setting": "[6]", "result": "Dose dependent reduction in cell viability."}, {"measurement": "Metabolic stability in liver microsomes, Mouse (percent parent compound remaining)", "setting": "[7]", "result": 36.6, "unit": "%"}, {"measurement": "Metabolic stability in liver microsomes, Human (percent parent compound remaining)", "setting": "[8]", "result": 74.9, "unit": "%"}, {"measurement": "Caspase-3 activity", "setting": "[9]", "result": "dose-dependently induced Caspase-3 activity"}, {"measurement": "AKT phosphorylation (dose dependence)", "setting": "[10]", "result": "dose dependent reduction"}, {"measurement": "inhibition at 0.3 µM", "setting": "[10]; Homo sapiens, Bone marrow cell, 0.3 μM, 48 hrs", "result": "> 50", "unit": "%"}, {"measurement": "pIC50", "setting": "[11]", "result": "5.12 to 6.30"}, {"measurement": "number of apoptotic cells", "setting": "[12]", "result": "concomitant increase in the number of apoptotic cells"}]}
